# The source made the active and inactive calls.
# Columns and labels:
# [1] = molecular target: T1, High affinity choline transporter 1 (Homo sapiens, UniProt Q9GZV3); assay: human choline transporter blockers, potency – cell-based, 5-point CRC, membrane potential dye, dose response (AID 504840); type: functional
# T1 sequence (Q9GZV3 whole entry): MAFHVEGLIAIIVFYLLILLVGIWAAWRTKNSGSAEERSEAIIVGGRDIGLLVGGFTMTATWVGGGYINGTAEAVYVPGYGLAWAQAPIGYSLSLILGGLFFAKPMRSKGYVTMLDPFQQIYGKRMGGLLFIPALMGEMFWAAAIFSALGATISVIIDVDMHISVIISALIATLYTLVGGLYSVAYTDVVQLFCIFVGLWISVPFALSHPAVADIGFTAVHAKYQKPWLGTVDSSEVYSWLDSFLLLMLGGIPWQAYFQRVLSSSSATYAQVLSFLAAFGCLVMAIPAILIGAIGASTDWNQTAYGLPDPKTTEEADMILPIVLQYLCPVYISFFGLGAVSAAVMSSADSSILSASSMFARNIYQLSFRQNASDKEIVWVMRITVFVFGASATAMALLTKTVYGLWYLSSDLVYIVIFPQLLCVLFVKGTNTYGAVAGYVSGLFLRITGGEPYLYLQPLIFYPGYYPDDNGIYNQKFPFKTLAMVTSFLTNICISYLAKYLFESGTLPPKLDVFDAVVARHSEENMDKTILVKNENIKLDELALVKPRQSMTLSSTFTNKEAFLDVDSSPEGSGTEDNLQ
# [2] = toxicity toward HepG2 liver cells – cell-based, plate reader, cherry-pick, antagonist series, cytotoxicity control, dose response (AID 743416); type: functional
# [3] = blockade of melanocortin 4 receptor signaling – cell-based, plate reader, cherry pick, counter-screen for LGR2 antagonist project, dose response (AID 743444); type: functional;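 further: transfected HEK 293 cells stimulated with alpha-MSH peptide; potency of inhibitors of the alpha-MSH evoked signal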
# [4] = HEK-293T cell viability reduction – luminescence, B-cell screen hits, cytotoxicity control for BCR NF-kB inhibitor project, dose response (AID 489021); type: functional, cell-based;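 further: HEK-293T cells carrying an NF-kB luciferase reporter; cells exposed to compound for about 14 hours before viability readout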
# [5] = viability loss in HEK293 cells – cell-based, plate reader, cherry-picked samples, cytotoxicity control, dose response (AID 743446); type: functional
# [6] = molecular target: T2, Replicative DNA helicase DnaB (Mycobacterium tuberculosis, UniProt P9WMR3); assay: DnaB intein splicing inhibitors, dose response, biochemical, cell-free fluorescence (AID 449749); type: functional
# T2 sequence (P9WMR3 whole entry): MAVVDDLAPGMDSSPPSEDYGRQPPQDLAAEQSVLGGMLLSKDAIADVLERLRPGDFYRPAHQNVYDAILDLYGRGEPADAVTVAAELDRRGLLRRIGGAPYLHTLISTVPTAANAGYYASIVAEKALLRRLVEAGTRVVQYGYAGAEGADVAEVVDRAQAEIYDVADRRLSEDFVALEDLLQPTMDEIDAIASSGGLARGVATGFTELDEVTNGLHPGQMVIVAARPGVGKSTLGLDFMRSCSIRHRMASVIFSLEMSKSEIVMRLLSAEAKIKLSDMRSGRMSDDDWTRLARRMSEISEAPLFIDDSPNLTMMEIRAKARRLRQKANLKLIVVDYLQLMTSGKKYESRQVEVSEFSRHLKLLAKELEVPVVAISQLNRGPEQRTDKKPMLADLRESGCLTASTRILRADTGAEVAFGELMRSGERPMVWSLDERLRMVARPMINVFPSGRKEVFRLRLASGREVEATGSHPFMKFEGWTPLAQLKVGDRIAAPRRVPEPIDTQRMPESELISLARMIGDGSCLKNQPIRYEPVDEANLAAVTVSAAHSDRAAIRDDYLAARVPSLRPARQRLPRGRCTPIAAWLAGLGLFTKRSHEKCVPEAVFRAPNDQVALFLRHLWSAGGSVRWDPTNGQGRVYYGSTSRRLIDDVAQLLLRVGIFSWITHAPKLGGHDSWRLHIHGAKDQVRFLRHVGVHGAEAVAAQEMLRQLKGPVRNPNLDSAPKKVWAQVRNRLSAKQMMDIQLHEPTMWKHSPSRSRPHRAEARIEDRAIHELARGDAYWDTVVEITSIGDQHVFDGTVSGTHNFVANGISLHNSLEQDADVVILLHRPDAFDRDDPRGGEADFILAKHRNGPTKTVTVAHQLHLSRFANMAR
# [7] = molecular target: T3, SUMO-activating enzyme (Homo sapiens, UniProt Q9UBT2); assay: blockers of UBC9-mediated SUMO conjugation – biochemical, AlphaScreen, SUMOylation inhibitor project, confirmation (AID 2018); type: functional
# [8] = molecular target: T4, Protein RecA (Mycobacterium tuberculosis, UniProt P9WHJ3); assay: Fluorescence Cell-Free Homogeneous Dose Retest to Identify Inhibitors of RecA-Intein Splicing Activity. [Related pubchem assays (depositor defined):AID2097, AID2223, AID489010, AID492950]; type: functional
# T4 sequence (P9WHJ3 whole entry): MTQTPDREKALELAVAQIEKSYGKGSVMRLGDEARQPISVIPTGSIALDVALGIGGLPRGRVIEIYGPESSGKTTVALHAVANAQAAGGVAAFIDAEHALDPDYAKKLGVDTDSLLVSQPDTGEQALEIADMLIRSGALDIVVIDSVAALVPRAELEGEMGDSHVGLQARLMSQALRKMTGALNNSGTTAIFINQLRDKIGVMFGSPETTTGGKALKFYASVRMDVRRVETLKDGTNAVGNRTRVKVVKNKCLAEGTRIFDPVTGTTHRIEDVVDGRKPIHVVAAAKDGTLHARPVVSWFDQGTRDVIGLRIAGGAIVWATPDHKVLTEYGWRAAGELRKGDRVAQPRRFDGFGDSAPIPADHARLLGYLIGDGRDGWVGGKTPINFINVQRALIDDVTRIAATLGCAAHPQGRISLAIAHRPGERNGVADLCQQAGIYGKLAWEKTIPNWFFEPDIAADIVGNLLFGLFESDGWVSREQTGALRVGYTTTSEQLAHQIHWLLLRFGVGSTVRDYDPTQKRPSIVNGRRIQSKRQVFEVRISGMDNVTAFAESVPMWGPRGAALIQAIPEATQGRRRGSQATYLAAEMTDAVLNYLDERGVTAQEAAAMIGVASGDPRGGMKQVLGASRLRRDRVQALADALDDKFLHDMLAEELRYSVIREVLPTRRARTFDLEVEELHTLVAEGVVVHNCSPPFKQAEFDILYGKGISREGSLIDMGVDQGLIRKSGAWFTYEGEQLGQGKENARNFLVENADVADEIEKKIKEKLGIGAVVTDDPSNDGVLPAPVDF
# [9] = tested on: INS1; assay: INS-1E survival protection against cytokine death – cell-based, luminescence, retest, dose response (AID 449756); type: functional; settings: Rattus norvegicus;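 further: cell death triggered by IL-1 beta plus TNF-alpha plus IFN-gamma mixture; protective hits raise ATP signal compared with cytokine alone wells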
# [10] = blockers of bursicon-stimulated LGR2 cAMP reporter – cell-based, HEK293, CRE-luciferase reporter, cherry pick, set 2, dose response (AID 743343); type: functional;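 further: transfected cells were stimulated with diluted bursicon conditioned medium after compound addition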
# [11] = molecular target: T3, SUMO-activating enzyme; assay: blockers of SAE1/SAE2–UBC9 SUMO transfer – biochemical, HTRF, uHTS, primary screen (AID 2006); type: protein-complex assay
# [12] = decrease of insulin promoter-GFP reporter – imaging, high-content screening, mouse beta cells (AID 1628); type: functional; settings: MIN6
# [13] = MIN6 cell viability loss – mouse insulinoma, cytotoxicity control, dose response (AID 2122); type: functional;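 further: confirmatory high-throughput counterscreen run to flag cytotoxic compounds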
# [14] = molecular target: Heat shock protein HSP 90-alpha (Homo sapiens, UniProt P07900); type: functional, organism-based
# [15] = A549 cell cytotoxicity, dose response, cytotoxicity control, plate reader, cherry-pick, antagonist series (AID 743412); type: functional, cell-based
# [16] = molecular target: CAAX prenyl protease 2 (Saccharomyces cerevisiae S288c, UniProt Q03530); type: biochemical
# [17] = molecular target: CAAX prenyl protease 1 (Saccharomyces cerevisiae S288c, UniProt P47154); assay: yeast CAAX protease Ste24 inhibition – biochemical, S. cerevisiae, plate reader, cherry-pick, dose response (AID 488815)
# [18] = molecular target: Nucleotide-binding oligomerization domain-containing protein 2 (Homo sapiens, UniProt Q9HC29); assay: PubChem AID 2334; type: functional
# [19] = molecular target: Tumor necrosis factor (Homo sapiens, UniProt P01375); assay: analog potency on TNFa NF-kB signaling – cell-based, revised, SAR follow-up (AID 2337); type: functional
# [20] = tested on: HEK293; assay: cells; settings: Homo sapiens;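 further: cells exposed to compound for 14 hours overnight before viability readout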
# [21] = molecular target: Nucleotide-binding oligomerization domain-containing protein 1 (Homo sapiens, UniProt Q9Y239); assay: blockers of NOD1 pathway activity – revised, SAR follow-up (AID 2333); type: functional
# Nucleotide-binding oligomerization domain-containing protein 1, sequence (Q9Y239 whole entry, the tested form may be a part): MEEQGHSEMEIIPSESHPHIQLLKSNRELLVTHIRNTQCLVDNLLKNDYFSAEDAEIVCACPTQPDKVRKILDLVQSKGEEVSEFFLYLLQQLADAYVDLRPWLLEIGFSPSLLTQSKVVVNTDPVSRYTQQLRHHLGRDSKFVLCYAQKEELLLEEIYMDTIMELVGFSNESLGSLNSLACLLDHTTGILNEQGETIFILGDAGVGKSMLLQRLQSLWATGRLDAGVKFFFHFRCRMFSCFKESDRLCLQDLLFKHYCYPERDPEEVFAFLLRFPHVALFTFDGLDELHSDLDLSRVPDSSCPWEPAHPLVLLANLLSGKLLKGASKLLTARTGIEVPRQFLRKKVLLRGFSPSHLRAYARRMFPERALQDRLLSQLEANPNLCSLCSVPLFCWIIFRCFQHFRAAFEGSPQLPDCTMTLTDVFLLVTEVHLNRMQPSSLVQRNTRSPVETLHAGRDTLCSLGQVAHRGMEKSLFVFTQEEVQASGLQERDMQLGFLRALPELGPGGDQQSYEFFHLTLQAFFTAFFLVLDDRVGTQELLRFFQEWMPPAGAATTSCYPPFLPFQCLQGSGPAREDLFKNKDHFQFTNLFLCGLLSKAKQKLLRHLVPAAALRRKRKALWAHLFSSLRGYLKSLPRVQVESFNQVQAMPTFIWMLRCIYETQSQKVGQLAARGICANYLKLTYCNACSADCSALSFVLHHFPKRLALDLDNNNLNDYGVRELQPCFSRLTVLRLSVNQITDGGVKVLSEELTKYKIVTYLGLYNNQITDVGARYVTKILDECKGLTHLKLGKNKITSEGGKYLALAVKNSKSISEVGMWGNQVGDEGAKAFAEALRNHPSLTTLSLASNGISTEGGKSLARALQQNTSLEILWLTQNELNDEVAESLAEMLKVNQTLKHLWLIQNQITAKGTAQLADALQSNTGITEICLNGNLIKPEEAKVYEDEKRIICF
# T3 sequence (Q9UBE0 whole entry): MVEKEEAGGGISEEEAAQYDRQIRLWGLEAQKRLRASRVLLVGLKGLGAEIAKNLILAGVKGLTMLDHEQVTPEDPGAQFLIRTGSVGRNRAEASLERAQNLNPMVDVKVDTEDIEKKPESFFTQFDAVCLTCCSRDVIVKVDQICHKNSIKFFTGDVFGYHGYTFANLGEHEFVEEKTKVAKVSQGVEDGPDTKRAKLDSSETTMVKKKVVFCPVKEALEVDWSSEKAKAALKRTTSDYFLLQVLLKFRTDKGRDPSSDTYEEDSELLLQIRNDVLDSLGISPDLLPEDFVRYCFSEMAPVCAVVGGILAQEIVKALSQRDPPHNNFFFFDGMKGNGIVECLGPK
# T3 sequence (Q9UBT2 whole entry): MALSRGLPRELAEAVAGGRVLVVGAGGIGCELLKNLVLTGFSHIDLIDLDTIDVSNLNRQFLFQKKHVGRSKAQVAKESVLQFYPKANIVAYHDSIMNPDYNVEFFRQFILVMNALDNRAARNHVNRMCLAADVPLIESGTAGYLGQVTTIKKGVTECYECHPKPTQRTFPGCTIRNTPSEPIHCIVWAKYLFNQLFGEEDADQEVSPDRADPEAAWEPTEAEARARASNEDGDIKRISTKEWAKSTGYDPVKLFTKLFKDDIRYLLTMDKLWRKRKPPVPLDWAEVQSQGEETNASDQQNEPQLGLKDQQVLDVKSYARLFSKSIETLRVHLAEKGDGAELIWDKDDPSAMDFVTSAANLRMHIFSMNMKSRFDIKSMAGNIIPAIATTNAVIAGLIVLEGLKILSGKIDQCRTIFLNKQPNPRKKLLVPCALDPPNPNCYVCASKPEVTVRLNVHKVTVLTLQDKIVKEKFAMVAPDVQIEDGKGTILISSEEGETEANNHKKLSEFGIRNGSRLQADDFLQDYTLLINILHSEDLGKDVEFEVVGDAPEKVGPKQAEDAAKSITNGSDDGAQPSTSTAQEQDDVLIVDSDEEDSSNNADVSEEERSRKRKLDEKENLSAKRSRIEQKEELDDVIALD
# CAAX prenyl protease 1, sequence (P47154 whole entry, the tested form may be a part): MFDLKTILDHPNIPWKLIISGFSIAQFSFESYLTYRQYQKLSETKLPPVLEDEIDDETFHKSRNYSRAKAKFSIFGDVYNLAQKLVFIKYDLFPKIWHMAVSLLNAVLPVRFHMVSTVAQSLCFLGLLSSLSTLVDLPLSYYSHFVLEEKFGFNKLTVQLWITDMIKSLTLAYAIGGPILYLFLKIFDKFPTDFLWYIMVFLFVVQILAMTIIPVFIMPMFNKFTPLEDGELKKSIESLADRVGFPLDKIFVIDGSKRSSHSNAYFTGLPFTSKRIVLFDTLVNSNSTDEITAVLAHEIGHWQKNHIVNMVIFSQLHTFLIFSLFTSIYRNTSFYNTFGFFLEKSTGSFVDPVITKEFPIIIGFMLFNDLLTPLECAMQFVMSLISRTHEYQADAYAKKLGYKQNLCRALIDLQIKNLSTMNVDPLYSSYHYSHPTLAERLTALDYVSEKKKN
# Nucleotide-binding oligomerization domain-containing protein 2, sequence (Q9HC29 whole entry, the tested form may be a part): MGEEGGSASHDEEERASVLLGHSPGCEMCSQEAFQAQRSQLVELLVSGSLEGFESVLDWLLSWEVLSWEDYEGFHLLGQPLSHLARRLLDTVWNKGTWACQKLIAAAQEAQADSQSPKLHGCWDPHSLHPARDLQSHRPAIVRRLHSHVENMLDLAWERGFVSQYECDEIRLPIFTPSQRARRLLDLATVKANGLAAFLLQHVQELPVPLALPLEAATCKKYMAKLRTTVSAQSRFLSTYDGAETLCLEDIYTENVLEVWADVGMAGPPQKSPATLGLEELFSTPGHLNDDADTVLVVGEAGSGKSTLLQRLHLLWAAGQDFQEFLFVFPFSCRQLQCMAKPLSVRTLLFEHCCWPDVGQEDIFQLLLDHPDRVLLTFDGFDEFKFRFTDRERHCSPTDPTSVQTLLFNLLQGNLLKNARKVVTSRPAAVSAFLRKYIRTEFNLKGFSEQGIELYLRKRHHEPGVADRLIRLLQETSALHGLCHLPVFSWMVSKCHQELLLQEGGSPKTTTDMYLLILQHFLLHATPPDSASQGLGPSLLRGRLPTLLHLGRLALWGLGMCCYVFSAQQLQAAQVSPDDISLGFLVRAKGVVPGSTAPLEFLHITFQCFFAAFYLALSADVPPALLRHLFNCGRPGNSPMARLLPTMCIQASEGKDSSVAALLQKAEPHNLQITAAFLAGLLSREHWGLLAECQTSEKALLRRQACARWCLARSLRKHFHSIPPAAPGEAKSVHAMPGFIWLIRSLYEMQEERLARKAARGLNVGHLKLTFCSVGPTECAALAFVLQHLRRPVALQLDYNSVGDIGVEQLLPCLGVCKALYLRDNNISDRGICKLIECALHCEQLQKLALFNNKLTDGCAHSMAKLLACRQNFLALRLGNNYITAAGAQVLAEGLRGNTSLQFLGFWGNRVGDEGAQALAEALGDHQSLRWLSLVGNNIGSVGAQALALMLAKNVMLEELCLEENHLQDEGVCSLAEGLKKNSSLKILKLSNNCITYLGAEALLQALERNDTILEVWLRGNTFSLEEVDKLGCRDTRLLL
# CAAX prenyl protease 2, sequence (Q03530 whole entry): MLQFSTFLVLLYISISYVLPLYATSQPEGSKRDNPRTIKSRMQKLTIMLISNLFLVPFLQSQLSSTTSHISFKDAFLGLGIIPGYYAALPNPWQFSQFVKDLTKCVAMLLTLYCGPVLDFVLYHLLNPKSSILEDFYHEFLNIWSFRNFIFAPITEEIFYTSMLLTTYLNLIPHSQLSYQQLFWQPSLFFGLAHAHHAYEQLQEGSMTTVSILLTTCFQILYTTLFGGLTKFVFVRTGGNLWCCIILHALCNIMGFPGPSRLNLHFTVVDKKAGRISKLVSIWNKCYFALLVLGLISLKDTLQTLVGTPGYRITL
# Tumor necrosis factor, sequence (P01375 whole entry): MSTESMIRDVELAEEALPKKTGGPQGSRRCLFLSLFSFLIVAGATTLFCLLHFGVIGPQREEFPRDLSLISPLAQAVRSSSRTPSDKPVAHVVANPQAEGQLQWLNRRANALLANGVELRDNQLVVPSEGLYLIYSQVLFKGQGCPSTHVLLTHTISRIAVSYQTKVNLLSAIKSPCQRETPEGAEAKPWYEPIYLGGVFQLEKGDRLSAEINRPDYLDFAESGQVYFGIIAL
compound,measurement,setting,value
O=C(Nc1nc(-c2ccccc2)cs1)c1ccccc1NS(=O)(=O)c1ccc(F)cc1,IC50,[1],13.8 µM (active)
same,AC50,[2],11.2 µM (active)
same,AC50,[3],6.01 µM (active)
same,IC50,[4],14.8 µM (active)
same,AC50,[5],3.39 µM (active)
same,AC50,[6],2.17 µM (active)
same,IC50,[7],7.97 µM (active)
same,EC50,[8],8.85 µM (active)
same,AC50,[9],3.41 µM (active)
same,AC50,[10],28.6 µM (active)
same,IC50,[11],18.4 µM (active)
same,IC50,[12],3.02 µM (active)
same,IC50,[13],2.18 µM (active)
same,AC50,[14],2.91 µM (active)
same,AC50,[15],14.6 µM (active)
COc1ccc(N2CCN(C(=O)c3cc(-c4cccs4)nc4ccccc34)CC2)cc1,AC50,[16],4.06 µM (active)
same,AC50,[17],47.6 µM (active)
Cc1cc(C(=O)NC2CCCc3c2cnn3-c2ccccc2F)[nH]n1 (stereo unspecified),IC50,[18],> 20 µM (inactive)
same,IC50,[19],> 20 µM (inactive)
same,IC50,[20],> 20 µM (inactive)
same,IC50,[21],> 20 µM (inactive)
